± gives the expanded uncertainty stated by the source.
What was measured:
[1] = surface light scattering
[2] = xn = mol fraction of the nth substance listed; conditions: surface light scattering

CCO [ethanol]
[1]
Conditions | surface tension liquid-gas [mN/m]
288.15 K | 22.72 ± 0.23
293.15 K | 22.31 ± 0.23
298.15 K | 21.85 ± 0.23
303.15 K | 21.41 ± 0.22
308.15 K | 21.04 ± 0.22
313.15 K | 20.62 ± 0.21
318.15 K | 20.29 ± 0.21

CCO [ethanol] + CC(C)CC(C)(C)C
[2], x2 = 0
Conditions | surface tension liquid-gas [mN/m]
288.15 K | 22.72 ± 0.23
298.15 K | 21.85 ± 0.23
308.15 K | 21.04 ± 0.22
318.15 K | 20.29 ± 0.21

CC(C)CC(C)(C)C [2,2,4-trimethylpentane]
[1]
Conditions | surface tension liquid-gas [mN/m]
288.15 K | 19.14 ± 0.19
298.15 K | 18.3 ± 0.18
303.15 K | 17.9 ± 0.18
308.15 K | 17.43 ± 0.18
313.15 K | 17.09 ± 0.17
318.15 K | 16.56 ± 0.17
323.15 K | 16.2 ± 0.2

CCCCCCCO [heptan-1-ol]
[1]
Conditions | surface tension liquid-gas [mN/m]
298.15 K | 26.46 ± 0.3
303.15 K | 25.93 ± 0.29
308.15 K | 25.43 ± 0.28
313.15 K | 24.95 ± 0.28
318.15 K | 24.55 ± 0.27
323.15 K | 24.03 ± 0.27

CCO [ethanol] + CCCCCCC
[2], x2 = 0
Conditions | surface tension liquid-gas [mN/m]
293.15 K | 22.31 ± 0.23
298.15 K | 21.85 ± 0.23
303.15 K | 21.41 ± 0.22
308.15 K | 21.04 ± 0.22
313.15 K | 20.62 ± 0.21
318.15 K | 20.29 ± 0.21

CC(C)CC(C)(C)C [2,2,4-trimethylpentane] + CCCO
surface tension liquid-gas [mN/m], [2]
Conditions | x1 = 0.1 | x1 = 0.2 | x1 = 0.3 | x1 = 0.4 | x1 = 0.4999 | x1 = 0.5996 | x1 = 0.6998 | x1 = 0.7995 | x1 = 0.9 | x1 = 1
298.15 K | 22.09 ± 0.23 | 21.18 ± 0.22 | 20.58 ± 0.21 | 20.05 ± 0.2 | 19.57 ± 0.2 | 19.22 ± 0.19 | 18.96 ± 0.19 | 18.69 ± 0.19 | 18.51 ± 0.19 | 18.3 ± 0.18
303.15 K | 21.65 ± 0.22 | 20.73 ± 0.21 | 20.12 ± 0.21 | 19.6 ± 0.2 | 19.12 ± 0.19 | 18.77 ± 0.19 | 18.53 ± 0.19 | 18.26 ± 0.18 | 18.09 ± 0.18 | 17.9 ± 0.18
308.15 K | 21.23 ± 0.22 | 20.28 ± 0.21 | 19.66 ± 0.2 | 19.12 ± 0.19 | 18.64 ± 0.19 | 18.29 ± 0.19 | 18.05 ± 0.18 | 17.78 ± 0.18 | 17.62 ± 0.18 | 17.43 ± 0.18
313.15 K | 20.77 ± 0.21 | 19.81 ± 0.2 | 19.19 ± 0.2 | 18.66 ± 0.19 | 18.19 ± 0.19 | 17.85 ± 0.18 | 17.63 ± 0.18 | 17.39 ± 0.18 | 17.25 ± 0.17 | 17.09 ± 0.17
318.15 K | 20.31 ± 0.21 | 19.31 ± 0.2 | 18.67 ± 0.19 | 18.13 ± 0.18 | 17.65 ± 0.18 | 17.31 ± 0.18 | 17.09 ± 0.17 | 16.85 ± 0.17 | 16.72 ± 0.17 | 16.56 ± 0.17
323.15 K | 19.84 ± 0.2 | 18.82 ± 0.19 | 18.18 ± 0.19 | 17.64 ± 0.18 | 17.17 ± 0.17 | 16.84 ± 0.17 | 16.65 ± 0.17 | 16.43 ± 0.17 | 16.33 ± 0.16 | 16.2 ± 0.2

CCCCCCC [heptane] + CCO
surface tension liquid-gas [mN/m], [2]
Conditions | x1 = 0.0481 | x1 = 0.1018 | x1 = 0.1676 | x1 = 0.2314 | x1 = 0.3171 | x1 = 0.4111 | x1 = 0.5123 | x1 = 0.6417 | x1 = 0.7983 | x1 = 1
293.15 K | 21.78 ± 0.23 | 21.27 ± 0.22 | 20.93 ± 0.22 | 20.74 ± 0.22 | 20.53 ± 0.22 | 20.36 ± 0.22 | 20.25 ± 0.22 | 20.2 ± 0.22 | 20.17 ± 0.22 | 20.12 ± 0.23
298.15 K | 21.3 ± 0.22 | 20.77 ± 0.22 | 20.41 ± 0.21 | 20.22 ± 0.21 | 20.02 ± 0.21 | 19.85 ± 0.21 | 19.75 ± 0.21 | 19.72 ± 0.21 | 19.71 ± 0.22 | 19.69 ± 0.22
303.15 K | 20.83 ± 0.22 | 20.27 ± 0.21 | 19.89 ± 0.21 | 19.7 ± 0.21 | 19.48 ± 0.21 | 19.31 ± 0.21 | 19.2 ± 0.21 | 19.16 ± 0.21 | 19.15 ± 0.21 | 19.13 ± 0.21
308.15 K | 20.43 ± 0.21 | 19.84 ± 0.21 | 19.44 ± 0.2 | 19.24 ± 0.2 | 19.02 ± 0.2 | 18.83 ± 0.2 | 18.72 ± 0.2 | 18.69 ± 0.2 | 18.68 ± 0.21 | 18.67 ± 0.21
313.15 K | 20 ± 0.21 | 19.39 ± 0.2 | 18.98 ± 0.2 | 18.76 ± 0.2 | 18.53 ± 0.2 | 18.33 ± 0.19 | 18.2 ± 0.19 | 18.16 ± 0.2 | 18.13 ± 0.2 | 18.1 ± 0.2
318.15 K | 19.64 ± 0.2 | 19.01 ± 0.2 | 18.58 ± 0.19 | 18.36 ± 0.19 | 18.12 ± 0.19 | 17.91 ± 0.19 | 17.79 ± 0.19 | 17.75 ± 0.19 | 17.73 ± 0.19 | 17.7 ± 0.2

CC(C)CC(C)(C)C [2,2,4-trimethylpentane] + CCCCCCCO
[2], x1 = 1
Conditions | surface tension liquid-gas [mN/m]
298.15 K | 18.3 ± 0.18
303.15 K | 17.9 ± 0.18
308.15 K | 17.43 ± 0.18
313.15 K | 17.09 ± 0.17
318.15 K | 16.56 ± 0.17
323.15 K | 16.2 ± 0.16

CC(C)CC(C)(C)C [2,2,4-trimethylpentane] + CCO
surface tension liquid-gas [mN/m], [2]
Conditions | x1 = 0.0429 | x1 = 0.0916 | x1 = 0.1474 | x1 = 0.2119 | x1 = 0.2874 | x1 = 0.3769 | x1 = 0.4848 | x1 = 0.6173 | x1 = 0.784 | x1 = 1
288.15 K | 22.27 ± 0.23 | 21.88 ± 0.23 | 21.47 ± 0.22 | 21.11 ± 0.22 | 20.74 ± 0.21 | 20.4 ± 0.21 | 20.03 ± 0.2 | 19.75 ± 0.2 | 19.5 ± 0.2 | 19.14 ± 0.19
298.15 K | 21.38 ± 0.22 | 20.96 ± 0.22 | 20.54 ± 0.21 | 20.17 ± 0.21 | 19.8 ± 0.2 | 19.46 ± 0.2 | 19.09 ± 0.19 | 18.83 ± 0.19 | 18.62 ± 0.19 | 18.3 ± 0.18
308.15 K | 20.54 ± 0.21 | 20.11 ± 0.21 | 19.66 ± 0.2 | 19.28 ± 0.2 | 18.9 ± 0.19 | 18.55 ± 0.19 | 18.17 ± 0.18 | 17.92 ± 0.18 | 17.73 ± 0.18 | 17.43 ± 0.18
318.15 K | 19.77 ± 0.2 | 19.31 ± 0.2 | 18.85 ± 0.19 | 18.45 ± 0.19 | 18.05 ± 0.18 | 17.7 ± 0.18 | 17.31 ± 0.18 | 17.05 ± 0.17 | 16.86 ± 0.17 | 16.56 ± 0.17

Source: the NIST ThermoML archive (doi:10.1021/acs.jced.5b00903)
